Where “and” joins values, the source holds several entries; their conditions need not be identical. Equal values may be shown once.
What was measured:
naked mouse oocytes [1] = assay: Testing of meiosis-activating substances in the oocyte test (Hx-medium); assay type: cell-based; settings: 10 µM in Hx-medium
Experimental: Oocytes were obtained from immature female mice (C57BI/6J × DBA/2J F1-hybrids, Bomholtgaard, Denmark) weighing 13 - 16 grams, that were kept under controlled lighting and temperature. The mice received an intra-peritoneal injection of 0.2 ml gonadotropins (Gonal F, Serono, Solna, Sweden , containing 20 IU FSH, alternatively, Puregon, Organon, Swords, Ireland containing 20 IU FSH) and 48 hours later the animals were killed by cervical dislocation.
The ovaries were dissected out and the oocytes were isolated in Hx-medium (see below) under a stereo microscope by manual rupture of the follicles using a pair of 27 gauge needles. Spherical, naked oocytes (NO) displaying an intact germinal vesicle (GV) were placed in α-minimum essential medium (α-MEM without ribonucleosides, Gibco BRL, Cat.No. 22561) supplemented with 3 mM hypoxanthine (Sigma Cat. No. H-9377), 8 mg/ml Human Serum Albumin (HSA, State Serum Institute, Denmark), 0,23 mM pyrubate (Sigma, Cat. No. S-8636), 2 mM glutamine (Flow Cat. No. 16-801), 100 IU/ml penicillin and 100 µg/ml streptomycin (Flow, Cat No. 16-700). This medium was designated Hx-medium. The oocytes were rinsed three times in Hx-medium and cultured in 4-well multidishes (Nuncion, Denmark) in which each well contained 0.4 ml of Hx-medium and 30 - 40 oocytes. One control (i.e. 30 - 40 oocytes cultured in Hx-medium with no addition of test compound) was always run simultaneously with the test cultures, which were made with different concentrations of the compounds to be tested. The cultures were performed at 37 °C and 100 % humidity with 5 % CO2 in air. The culture time was 22 - 24 hours.
By the end of the culture period, the number of oocytes with germinal vesicle (GV) or germinal vesicle breakdown (GVB) and those with polar body (PB) was counted using a stereo microscope or an inverted microscope with differential interference contrast equipment. The percentage of oocytes with GVB per total number of oocytes and the percentage of oocytes with PB per total number of oocytes was calculated in the test cultures and compared to the control culture.
Oocytes arrested in meiosis are characterised by an intact nucleus with a prominent nucleolus, known as germinal vesicle (GV). Upon reinitiation of meiosis the nucleolus and the nuclear envelope disappear and this is characterised by a breakdown of the GV, which than is called germinal vesicle breakdown (GVB). Some hours later the oocyte complete a reductional division and elicit the first so called polar body (PB).

naked mouse oocytes [2] = assay: Test of meiosis-inhibiting substances in the oocyte test (co-culture with FF-MAS in Hx-medium); assay type: cell-based; settings: for Oocytes [n] GV: number of oocytes with germinal vesicle; for Oocytes [n] GVB: number of oocytes with germinal vesicle breakdown; for Oocytes [n] PB: number of oocytes with polar bodies
Experimental: Oocytes were obtained from immature female mice (C57BI/6J × DBA/2J F1-hybrids, Bomholtgaard, Denmark) weighing 13 - 16 grams, that were kept under controlled lighting and temperature. The mice received an intra-peritoneal injection of 0.2 ml gonadotropins (Gonal F, Serono, Solna, Sweden , containing 20 IU FSH, alternatively, Puregon, Organon, Swords, Ireland containing 20 IU FSH) and 48 hours later the animals were killed by cervical dislocation. The ovaries were dissected out and the oocytes were isolated in Hx-medium (see below) under a stereo microscope by manual rupture of the follicles using a pair of 27 gauge needles. Spherical, naked oocytes (NO) displaying an intact germinal vesicle (GV) were placed in α-minimum essential medium (α-MEM without ribonucleosides, Gibco BRL, Cat.No. 22561) supplemented with 3 mM hypoxanthine (Sigma Cat. No. H-9377), 8 mg/ml Human Serum Albumin (HSA, State Serum Institute, Denmark), 0,23 mM pyrubate (Sigma, Cat. No. S-8636), 2 mM glutamine (Flow Cat. No. 16-801), 100 IU/ml penicillin and 100 µg/ml streptomycin (Flow, Cat No. 16-700). This medium was designated Hx-medium. The oocytes were rinsed three times in Hx-medium and cultured in 4-well multidishes (Nuncion, Denmark) in which each well contained 0.4 ml of Hx-medium and 30 - 40 oocytes. One control (i.e. 30 - 40 oocytes cultured in Hx-medium with no addition of test compound) was always run simultaneously with the test cultures, which were made with different concentrations of the compounds to be tested. The cultures were performed at 37 °C and 100 % humidity with 5 % CO2 in air. The culture time was 22 - 24 hours. Germinal vesicle (GV) oocytes were obtained from immature FSH treated female mice using the same methods as described in Example 1 (see above). Naked oocytes (NO) were rinsed three times in Hx-medium. […] NO were cultured in Hx-medium supplemented with 5 µM FF-MAS in co-culture with the test compounds in different concentrations in 4-well multidishes (Nunclon, Denmark) in which each well contained 0.4 ml of Hx-medium and 30 - 40 oocytes. One positive control (i.e., 30 - 40 oocytes cultured in Hx-medium containing FF-MAS with no addition of test compound) was always run simultaneously with the test cultures, which were supplemented with different concentrations of the compounds to be tested. In addition, one negative control ( 30 - 40 oocytes cultured in Hx-medium alone) was run simultaneously with the positive control. By the end of the culture period, the number of oocytes with germinal vesicle (GV) or germinal vesicle breakdown (GVB) and those with polar body (PB) was counted using a stereo microscope or an inverted microscope with differential interference contrast equipment. The percentage of oocytes with GVB + PB per total number of oocytes were calculated in the test cultures and in the control (positive and negative) culture groups. The relative inhibition of the test compound was calculated by the following formula: inhibition test compound (%) = 100% - [(GVB+PB (test compound) - GVB+PB (negative control)) x 100 / GVB+PB(positive control) - GVB+PB (negative control)] % [formula] Oocytes arrested in meiosis are characterised by an intact nucleus with a prominent nucleolus, known as germinal vesicle (GV). Upon reinitiation of meiosis the nucleolus and the nuclear envelope disappear and this is characterised by a breakdown of the GV, which than is called germinal vesicle breakdown (GVB). Some hours later the oocyte complete a reductional division and elicit the first so called polar body (PB).

[3] = 5µM FF-MAS alone in Hx-medium (positive control)
[4] = 5µM FF-MAS + 10 µM test compound in Hx-medium
[5] = 5µM FF-MAS + 10 µM test compound in Hx-medium, relative inhibition of meiosis

SMILES	Oocytes [n] GV (naked mouse oocytes [1])	Oocytes [n] GVB (naked mouse oocytes [1])	Oocytes [n] PB (naked mouse oocytes [1])	activation at 10 µM (naked mouse oocytes [1]; Mus musculus, Oocyte, read-out: Activation [%] GVB+PB)	Oocytes [n] GV (naked mouse oocytes [2]; [3])	Oocytes [n] GVB (naked mouse oocytes [2]; [3])	inhibition at 5 µM (naked mouse oocytes [2]; Mus musculus, Oocyte, 5µM FF-MAS alone in Hx-medium (positive control), relative inhibition of meiosis)	Oocytes [n] GV (naked mouse oocytes [2]; [4])	Oocytes [n] GVB (naked mouse oocytes [2]; [4])	Oocytes [n] PB (naked mouse oocytes [2]; [4])	Inhibition [%] (naked mouse oocytes [2]; [5])
CC(C)=CCC[C@@H](C)[C@H]1CC=C2C3=C(CC[C@@]21C)[C@@]1(C)CC[C@H](O)C(C)(C)[C@@H]1CC3 [FF-MAS, 4,4-Dimethylcholest-B, 14,24-trien-3β-ol]	6 n	31 n	2 n	85%	4 n and 8 n	16 n and 25 n	0%	–	–	–	–
CC(C)=CCO[C@H]1CC[C@H]2[C@@H]3CC[C@]45C[C@H](CC[C@]4(C)[C@H]3CC[C@]12C)OC5=O [Example 12, 17β-(prenyloxy)-5β-androstane-5,3β-carbolactone]	–	–	–	–	–	–	–	24 n	9 n	1 n	84%
CC(C)CCC[C@@H](C)[C@H]1CC[C@H]2C3=C(CC[C@]12C)[C@@]1(C)CC[C@@]2(OCCO)C[C@]1(CC3)[C@H](C)O2 [Example 5, 2-[(4aα-methyl-4a-homo-3α,5-methano-4-oxa-5α-cholest-8-en-3β-yl)oxy]ethanol]	–	–	–	–	–	–	–	30 n	0 n	0 n	100%
